Source: PubChem BioAssay (NCI)
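Dose response: 5 concentrations. Exposure: 48 h. Format: 96-well plates. Endpoint: linear interpolation; highest concentration if not reached. At the TGI there is no net growth.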

Legend:
Experiment in all cases: NCI tumour cell line growth inhibition, 48 h
DMS 114 small cell lung = tested on: DMS 114 small cell lung
DLD-1 colon = tested on: DLD-1 colon
LXFL 529 NSCLC = tested on: LXFL 529 NSCLC
M19-MEL melanoma = tested on: M19-MEL melanoma
HOP-18 NSCLC = tested on: HOP-18 NSCLC
KM20L2 colon = tested on: KM20L2 colon
RXF-631 renal = tested on: RXF-631 renal
XF 498 CNS = tested on: XF 498 CNS

Structure (SMILES) | TGI (DMS 114 small cell lung) [µM] | TGI (DLD-1 colon) [µM] | TGI (LXFL 529 NSCLC) [µM] | TGI (M19-MEL melanoma) [µM] | TGI (HOP-18 NSCLC) [µM] | TGI (KM20L2 colon) [µM] | TGI (RXF-631 renal) [µM] | TGI (XF 498 CNS) [µM]
CC1(C)COC(c2c(-c3ccccc3)noc2CS(=O)c2ccccc2)=N1 (stereo not drawn) | 99.1 | > 100 | > 100 | > 100 | 86.4 | > 100 |  | 
CCN(CC)CCCCC1CCN(CC(=O)N2c3ccccc3NC(=O)CC2C)CC1 (stereo not drawn) | > 100 |  | > 100 | > 100 | > 100 | > 100 | > 100 | 
O=C(OCc1ccccc1C1CSCSC1)c1cc(C(=O)OCc2ccccc2C2CSCSC2)c(C(=O)OCc2ccccc2C2CSCSC2)cc1C(=O)OCc1ccccc1C1CSCSC1 | > 100 | > 100 | > 100 | > 100 | > 100 | > 100 |  | 
OC12CCCCCC1(N1CCOCC1)c1ccccc12 (stereo not drawn) | > 100 |  | > 100 | > 100 | > 100 | > 100 |  | 
Cc1cc(=O)[nH]c(NNC(C#N)c2ccc([N+](=O)[O-])cc2)n1 (stereo not drawn) | > 100 | > 100 | > 100 | > 100 | > 100 | > 100 |  | 
O=c1c2c(nc3n1CCC3)sc1c(O)c(Br)ccc12 | 32.4 | > 100 |  | 32.8 | > 100 | 35.9 |  | 36.8
Cc1cc2occ(-c3ccc(Cl)cc3)c2c(=O)o1 | > 100 | > 100 | > 100 |  | > 100 | > 100 | > 100 | 
CC(=O)NC1=C(NCC(C)C)C(=O)c2ccccc2C1=O | 31.7 | 40.1 | 34.4 | 34.2 | 29.5 | 43.9 |  | 27
CC(=O)Nc1ccc(C(=O)N2N=C(C)/C(=C/c3ccc(O)cc3)C2=O)cc1 | > 100 | > 100 |  | > 100 |  |  |  | > 100
C/C(=N\Nc1ccccc1)C(CN(C)C)C(c1ccccc1)c1c(O)c2ccccc2oc1=O (stereo not drawn) | > 100 |  | > 100 | > 100 |  | > 100 | > 100 | 
CC(c1ccccc1)N1CC(C)(c2ccccc2)N(O)C(c2ccccc2)C1C (stereo not drawn) | 45.1 | > 100 | 37.3 |  | 51.2 | 44.7 | 82 | 
C/C(=C\Cc1cc(O)ccc1O)CCc1c(C)cc(O)c(C=O)c1C | 31.2 | 55.1 | 30.2 |  | 53.4 | > 100 |  | 45.2
CCOC1=C2NC(Cc3ccc(F)cc3)=NC2C(=O)c2ccccc21 (stereo not drawn) | 61.9 | > 100 | 77.3 | 39.5 |  | > 100 | > 100 | 
COC(=O)n1c(C[P+](c2ccccc2)(c2ccccc2)c2ccccc2)cc2ccccc21 | 9.29 | 11.4 | 3.73 | 13.1 |  | 10.7 |  | 6.09
COC(=O)CC(NC(=O)OCc1ccccc1)C(C(=O)OCc1ccccc1)C1(C)OCCO1 (stereo not drawn) | 82.6 | > 100 | 73 | > 100 |  | > 100 | > 100 | 42.3
